Assay results taken from patent US12325676B2, “Cationic lipid compound and composition for delivery of nucleic acids and use thereof” (Shenzhen Rhegen Biotechnology Co., Ltd., priority 2022, dated 2025).

Test: Encapsulation rate of mRNA-loaded lipid nanoparticles (Ribogreen kit)
Type: physicochemical

## CCCCCCCCSCC(C)C(=O)OCCCCCN(CCO)CCCCCCCC(=O)OC(CCCCCCCC)CCCCCCCC (stereo not shown) [Compound 35]
Table 2 No. 1, Luc mRNA LNP, Compound 35/DMG-PEG2000/DSPC/cholesterol 55/2.5/22/20.5 molar, N/P 5
  Encapsulation rate (%): 85.78%
Table 2 No. 2, Luc mRNA LNP, Compound 35/DMG-PEG2000/DSPC/cholesterol 45/1.5/22/31.5 molar, N/P 10
  Encapsulation rate (%): 96.98%
Table 2 No. 3, Luc mRNA LNP, Compound 35/DMG-PEG2000/DSPC/cholesterol 45/2.5/8/44.5 molar, N/P 5
  Encapsulation rate (%): 97.38%
Table 2 No. 4, Luc mRNA LNP, Compound 35/DMG-PEG2000/DSPC/cholesterol 45/1.5/8/45.5 molar, N/P 10
  Encapsulation rate (%): 96.70%
Table 2 No. 5, Luc mRNA LNP, Compound 35/DMG-PEG2000/DSPC/cholesterol 50/1.5/15/33.5 molar, N/P 7.5
  Encapsulation rate (%): 96.10%
Table 2 No. 6, Luc mRNA LNP, Compound 35/DMG-PEG2000/DSPC/cholesterol 55/1.5/15/28.5 molar, N/P 10
  Encapsulation rate (%): 94.46%
Table 2 No. 7, Luc mRNA LNP, Compound 35/DMG-PEG2000/DOPE/cholesterol 55/2.5/22/20.5 molar, N/P 5
  Encapsulation rate (%): 90.26%
Table 2 No. 8, Luc mRNA LNP, Compound 35/DMG-PEG2000/DOPE/cholesterol 45/1.5/22/31.5 molar, N/P 10
  Encapsulation rate (%): 94.11%
Table 2 No. 9, Luc mRNA LNP, Compound 35/DMG-PEG2000/DOPE/cholesterol 45/2.5/8/44.5 molar, N/P 5
  Encapsulation rate (%): 94.62%
Table 2 No. 10, Luc mRNA LNP, Compound 35/DMG-PEG2000/DOPE/cholesterol 45/1.5/8/45.5 molar, N/P 10
  Encapsulation rate (%): 96.36%
Table 2 No. 11, Luc mRNA LNP, Compound 35/DMG-PEG2000/DOPE/cholesterol 50/1.5/15/33.5 molar, N/P 7.5
  Encapsulation rate (%): 92.54%
Table 2 No. 12, Luc mRNA LNP, Compound 35/DMG-PEG2000/DOPE/cholesterol 55/1.5/15/28.5 molar, N/P 10
  Encapsulation rate (%): 96.16%
Table 4 batch, EPO mRNA LNP prepared as Example 20
  Encapsulation rate (%): 96.1%
